# Where a SMILES comes first, the peptide text is derived from it. Bridges are numbered along the chain shown (N, C = ends). [ ]: non-standard residue; d: D form. Trp(1-CH2COOH) = N[C@@H](Cc1cn(CC(=O)O)c2ccccc12)C(=O)O; Hyp = O=C(O)[C@@H]1C[C@@H](O)CN1; NMeNle = CCCC[C@H](NC)C(=O)O; NMeA = CN[C@@H](C)C(=O)O; Orn = NCCC[C@H](N)C(=O)O; Dab = NCC[C@H](N)C(=O)O; Dap = NC[C@H](N)C(=O)O
# Target: T1, Human PD-L1/PD-1 (Homo sapiens, UniProt Q9NZQ7)
# T1 construct: TVMV protease cleavage site (C); made in house; host or cells: HEK293T cells
# Experiment: HTRF Human PD-L1/PD-1 binding assay (PD-1-Ig/PD-L1-His)
# Details: PD-L1-His 10 nM, PD-1-Ig 20 nM; class symbol; read-out: HTRF Human PD-L1/PD-1 Binding Assay IC50 Range
# Procedure, shortened: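 HTRF competition using HEK293T-expressed human PD-1(25-167)-Ig at 20 nM and PD-L1(18-239)-His at 10 nM, compound incubated first with PD-L1 for 15 min, then with PD-1 for 15 min. Signal read as 665/620 nm ratio 30 min after adding Eu anti-Ig and APC anti-His antibodies.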
# T1 sequence (Q9NZQ7 with tags, fused parts or gaps): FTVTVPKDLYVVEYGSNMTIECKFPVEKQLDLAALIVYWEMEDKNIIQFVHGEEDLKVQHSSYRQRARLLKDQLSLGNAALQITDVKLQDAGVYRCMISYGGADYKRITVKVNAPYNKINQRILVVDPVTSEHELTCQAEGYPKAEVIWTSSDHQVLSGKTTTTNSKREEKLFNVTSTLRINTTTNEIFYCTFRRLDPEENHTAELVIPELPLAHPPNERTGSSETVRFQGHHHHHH
row,Structure (SMILES),IC50
1,CCCC[C@H]1C(=O)N(C)[C@@H](CCCC)C(=O)N[C@@H](CCC(=O)O)C(=O)N[C@H](C(=O)NCC(N)=O)CSCC(=O)N[C@@H](Cc2ccc(O)cc2)C(=O)N(C)[C@@H](C)C(=O)N[C@@H](CC(N)=O)C(=O)N2CCC[C@H]2C(=O)N[C@@H](Cc2c[nH]cn2)C(=O)N[C@@H](CCC(=O)O)C(=O)N2C[C@H](O)C[C@H]2C(=O)N[C@@H](Cc2c[nH]c3ccccc23)C(=O)N[C@@H](CCN)C(=O)N[C@@H](Cc2c[nH]c3ccccc23)C(=O)N1C [Example 5190] ({CH2CO}-Y[NMeA]NPHE[Hyp]W[Dab]W[NMeNle][NMeNle]ECG-NH2; thioether N-14),1 to 9.9 nM
2,CCCC[C@H]1C(=O)N(C)[C@@H](CCCC)C(=O)N[C@@H](CCC(=O)O)C(=O)N[C@H](C(=O)NCC(N)=O)CSCC(=O)N[C@@H](Cc2ccc(O)cc2)C(=O)N(C)[C@@H](C)C(=O)N[C@@H](CC(N)=O)C(=O)N2CCC[C@H]2C(=O)N[C@@H](CN)C(=O)N[C@@H](CCC(N)=O)C(=O)N2C[C@H](O)C[C@H]2C(=O)N[C@@H](Cc2c[nH]c3ccccc23)C(=O)N[C@@H](CCC(=O)O)C(=O)N[C@@H](Cc2c[nH]c3ccccc23)C(=O)N1C [Example 5191] ({CH2CO}-Y[NMeA]NP[Dap]Q[Hyp]WEW[NMeNle][NMeNle]ECG-NH2; thioether N-14),1 to 9.9 nM
3,CCCC[C@H]1C(=O)N(C)[C@@H](CCCC)C(=O)N[C@@H](CN)C(=O)N[C@H](C(=O)NCC(N)=O)CSCC(=O)N[C@@H](Cc2ccc(O)cc2)C(=O)N(C)[C@@H](C)C(=O)N[C@@H](CC(=O)O)C(=O)N2CCC[C@H]2C(=O)N[C@@H](CN)C(=O)N[C@@H](CCC(N)=O)C(=O)N2C[C@H](O)C[C@H]2C(=O)N[C@@H](Cc2c[nH]c3ccccc23)C(=O)N[C@@H](CCN)C(=O)N[C@@H](Cc2cn(CC(=O)O)c3ccccc23)C(=O)N1C [Example 5192] ({CH2CO}-Y[NMeA]DP[Dap]Q[Hyp]W[Dab][Trp(1-CH2COOH)][NMeNle][NMeNle][Dap]CG-NH2; thioether N-14),1 to 9.9 nM
4,CCCC[C@H]1C(=O)N(C)[C@@H](CCCC)C(=O)N[C@@H](CCC(=O)O)C(=O)N[C@H](C(=O)NCC(N)=O)CSCC(=O)N[C@@H](Cc2ccc(O)cc2)C(=O)N(C)[C@@H](C)C(=O)N[C@@H](CC(N)=O)C(=O)N2CCC[C@H]2C(=O)N[C@@H](CO)C(=O)N[C@@H](CCC(=O)O)C(=O)N2C[C@H](O)C[C@H]2C(=O)N[C@@H](Cc2c[nH]c3ccccc23)C(=O)N[C@@H](CCC(=O)O)C(=O)N[C@@H](Cc2c[nH]c3ccccc23)C(=O)N1C [Example 5196] ({CH2CO}-Y[NMeA]NPSE[Hyp]WEW[NMeNle][NMeNle]ECG-NH2; thioether N-14),1 to 9.9 nM
5,CCCC[C@H]1C(=O)N(C)[C@@H](CCCC)C(=O)NCC(=O)N[C@H](C(=O)NCC(N)=O)CSCC(=O)N[C@@H](Cc2ccc(O)cc2)C(=O)N(C)[C@@H](C)C(=O)N[C@@H](CC(N)=O)C(=O)N2CCC[C@H]2C(=O)N[C@@H](Cc2c[nH]cn2)C(=O)N[C@@H](CCC(N)=O)C(=O)N2C[C@H](O)C[C@H]2C(=O)N[C@@H](Cc2c[nH]c3ccccc23)C(=O)NCC(=O)N[C@@H](Cc2c[nH]c3ccccc23)C(=O)N1C [Example 5198] ({CH2CO}-Y[NMeA]NPHQ[Hyp]WGW[NMeNle][NMeNle]GCG-NH2; thioether N-14),10 to 99.9 nM
6,CCCC[C@H]1C(=O)N(C)[C@@H](CCCC)C(=O)N[C@@H](CC(C)C)C(=O)N[C@H](C(=O)O)CSCC(=O)N[C@@H](Cc2ccc(O)cc2)C(=O)N(C)[C@@H](C)C(=O)N[C@@H](CC(N)=O)C(=O)N2CCC[C@H]2C(=O)N[C@@H](CN)C(=O)N[C@@H](CC(C)C)C(=O)N2C[C@H](O)C[C@H]2C(=O)N[C@@H](Cc2c[nH]c3ccccc23)C(=O)N[C@@H](CCCN)C(=O)N[C@@H](Cc2cn(CC(=O)O)c3ccccc23)C(=O)N1C [Example 5199] ({CH2CO}-Y[NMeA]NP[Dap]L[Hyp]W[Orn][Trp(1-CH2COOH)][NMeNle][NMeNle]LC-OH; thioether N-14),1 to 9.9 nM
7,CCCC[C@H]1C(=O)N(C)[C@@H](CCCC)C(=O)N[C@@H](CCC(=O)O)C(=O)N[C@H](C(=O)NCC(N)=O)CSCC(=O)N[C@@H](Cc2ccc(O)cc2)C(=O)N(C)[C@@H](C)C(=O)N[C@@H](CC(=O)O)C(=O)N2CCC[C@H]2C(=O)N[C@@H](CN)C(=O)N[C@@H](CCC(N)=O)C(=O)N2C[C@H](O)C[C@H]2C(=O)N[C@@H](Cc2c[nH]c3ccccc23)C(=O)N[C@@H](CCN)C(=O)N[C@@H](Cc2c[nH]c3ccccc23)C(=O)N1C [Example 5200] ({CH2CO}-Y[NMeA]DP[Dap]Q[Hyp]W[Dab]W[NMeNle][NMeNle]ECG-NH2; thioether N-14),1 to 9.9 nM

# The next lines start with the values.
row,IC50,Structure (SMILES)
1,1 to 9.9 nM,CCCC[C@H]1C(=O)N(C)[C@@H](CCCC)C(=O)N[C@@H](CC(C)C)C(=O)N[C@H](C(=O)NCC(N)=O)CSCC(=O)N[C@@H](Cc2ccc(O)cc2)C(=O)N(C)[C@@H](C)C(=O)N[C@@H](CCN)C(=O)N2CCC[C@H]2C(=O)N[C@@H](Cc2c[nH]cn2)C(=O)N[C@@H](CCCCN)C(=O)N2C[C@H](O)C[C@H]2C(=O)N[C@@H](Cc2c[nH]c3ccccc23)C(=O)N[C@@H](CCCCN)C(=O)N[C@@H](Cc2c[nH]c3ccccc23)C(=O)N1C [Example 5201] ({CH2CO}-Y[NMeA][Dab]PHK[Hyp]WKW[NMeNle][NMeNle]LCG-NH2; thioether N-14)
2,1 to 9.9 nM,CCCC[C@H]1C(=O)N(C)[C@@H](CCCC)C(=O)N[C@@H](CC(C)C)C(=O)N[C@H](C(=O)NCC(N)=O)CSCC(=O)N[C@@H](Cc2ccc(O)cc2)C(=O)N(C)[C@@H](C)C(=O)N[C@@H](CC(=O)O)C(=O)N2CCC[C@H]2C(=O)N[C@@H](Cc2c[nH]cn2)C(=O)N[C@@H](CCCCNC(C)=O)C(=O)N2C[C@H](O)C[C@H]2C(=O)N[C@@H](Cc2c[nH]c3ccccc23)C(=O)N[C@@H](CCCCN)C(=O)N[C@@H](Cc2c[nH]c3ccccc23)C(=O)N1C [Example 5202] ({CH2CO}-Y[NMeA]DPHK(Ac)[Hyp]WKW[NMeNle][NMeNle]LCG-NH2; thioether N-14)
3,1 to 9.9 nM,CCCC[C@H]1C(=O)N(C)[C@@H](CCCC)C(=O)N[C@@H](CCC(=O)O)C(=O)N[C@H](C(=O)NCC(N)=O)CSCC(=O)N[C@@H](Cc2ccc(O)cc2)C(=O)N(C)[C@@H](C)C(=O)N[C@@H](CC(N)=O)C(=O)N2CCC[C@H]2C(=O)N[C@@H](CO)C(=O)N[C@@H](CCC(N)=O)C(=O)N2C[C@H](O)C[C@H]2C(=O)N[C@@H](Cc2c[nH]c3ccccc23)C(=O)N[C@@H](CO)C(=O)N[C@@H](Cc2c[nH]c3ccccc23)C(=O)N1C [Example 5204] ({CH2CO}-Y[NMeA]NPSQ[Hyp]WSW[NMeNle][NMeNle]ECG-NH2; thioether N-14)
4,1 to 9.9 nM,CCCC[C@H]1C(=O)N(C)[C@@H](CCCC)C(=O)N[C@@H](CCC(=O)O)C(=O)N[C@H](C(=O)NCC(N)=O)CSCC(=O)N[C@@H](Cc2ccc(O)cc2)C(=O)N(C)[C@@H](C)C(=O)N[C@@H](CC(N)=O)C(=O)N2CCC[C@H]2C(=O)N[C@@H](CO)C(=O)N[C@@H](CCC(=O)O)C(=O)N2C[C@H](O)C[C@H]2C(=O)N[C@@H](Cc2c[nH]c3ccccc23)C(=O)N[C@@H](CO)C(=O)N[C@@H](Cc2c[nH]c3ccccc23)C(=O)N1C [Example 5205] ({CH2CO}-Y[NMeA]NPSE[Hyp]WSW[NMeNle][NMeNle]ECG-NH2; thioether N-14)
5,10 to 99.9 nM,CCCC[C@H]1C(=O)N(C)[C@@H](CCCC)C(=O)N[C@@H](CCC(=O)O)C(=O)N[C@H](C(=O)NCC(N)=O)CSCC(=O)N[C@@H](Cc2ccc(O)cc2)C(=O)N(C)[C@@H](C)C(=O)N[C@@H](CC(N)=O)C(=O)N2CCC[C@H]2C(=O)N[C@@H](CN)C(=O)N[C@@H](CCC(=O)O)C(=O)N2C[C@H](O)C[C@H]2C(=O)N[C@@H](Cc2c[nH]c3ccccc23)C(=O)N[C@@H](CCN)C(=O)N[C@@H](Cc2c[nH]c3ccccc23)C(=O)N1C [Example 5207] ({CH2CO}-Y[NMeA]NP[Dap]E[Hyp]W[Dab]W[NMeNle][NMeNle]ECG-NH2; thioether N-14)
6,1 to 9.9 nM,CCCC[C@H]1C(=O)N(C)[C@@H](CCCC)C(=O)N[C@@H](CCC(=O)O)C(=O)N[C@H](C(=O)NCC(N)=O)CSCC(=O)N[C@@H](Cc2ccc(O)cc2)C(=O)N(C)[C@@H](C)C(=O)N[C@@H](CC(N)=O)C(=O)N2CCC[C@H]2C(=O)N[C@@H](CN)C(=O)N[C@@H](CCC(N)=O)C(=O)N2C[C@H](O)C[C@H]2C(=O)N[C@@H](Cc2c[nH]c3ccccc23)C(=O)N[C@@H](CO)C(=O)N[C@@H](Cc2c[nH]c3ccccc23)C(=O)N1C [Example 5208] ({CH2CO}-Y[NMeA]NP[Dap]Q[Hyp]WSW[NMeNle][NMeNle]ECG-NH2; thioether N-14)
7,1 to 9.9 nM,CCCC[C@H]1C(=O)N(C)[C@@H](CCCC)C(=O)N[C@@H](CN)C(=O)N[C@H](C(=O)NCC(N)=O)CSCC(=O)N[C@@H](Cc2ccc(O)cc2)C(=O)N(C)[C@@H](C)C(=O)N[C@@H](CC(N)=O)C(=O)N2CCC[C@H]2C(=O)N[C@@H](CN)C(=O)N[C@@H](CCC(N)=O)C(=O)N2C[C@H](O)C[C@H]2C(=O)N[C@@H](Cc2c[nH]c3ccccc23)C(=O)N[C@@H](CCN)C(=O)N[C@@H](Cc2cn(CC(=O)O)c3ccccc23)C(=O)N1C [Example 5213] ({CH2CO}-Y[NMeA]NP[Dap]Q[Hyp]W[Dab][Trp(1-CH2COOH)][NMeNle][NMeNle][Dap]CG-NH2; thioether N-14)
8,1 to 9.9 nM,CCCC[C@H]1C(=O)N(C)[C@@H](CCCC)C(=O)N[C@@H](CCC(=O)O)C(=O)N[C@H](C(=O)NCC(N)=O)CSCC(=O)N[C@@H](Cc2ccc(O)cc2)C(=O)N(C)[C@@H](C)C(=O)N[C@@H](CC(=O)O)C(=O)N2CCC[C@H]2C(=O)N[C@@H](CO)C(=O)N[C@@H](CCC(N)=O)C(=O)N2C[C@H](O)C[C@H]2C(=O)N[C@@H](Cc2c[nH]c3ccccc23)C(=O)N[C@@H](CO)C(=O)N[C@@H](Cc2c[nH]c3ccccc23)C(=O)N1C [Example 5214] ({CH2CO}-Y[NMeA]DPSQ[Hyp]WSW[NMeNle][NMeNle]ECG-NH2; thioether N-14)

# Reference: patent US10538555B2, “Macrocyclic inhibitors of the PD-1/PD-L1 and CD80(B7-1)/PD-L1 protein/protein interactions” (BRISTOL-MYERS SQUIBB COMPANY, priority 2014, dated 2020)
